Laboratory results as given in patent US9040547B2, “Pyrrolopyrimidine and purine derivatives” (PFIZER INC., priority 2011, dated 2015).

Experiments:
Type in all cases: cell-based
EGFR L858R+T790M = EGFR L858R+T790M (Homo sapiens, UniProt P00533, L858R/T790M); assay: pEGFR Y1068 ELISA assay, NIH3T3/EGFR_L858R+T790M cells; conditions: 3T3 cell line, 2 hrs compound treatment; read-out: pEGFRY1068 ELISA3T3T790M—L858R IC50;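 note: sandwich ELISA of EGFR phosphorylated at Tyr1068 in lysates of stably transfected NIH/3T3 cells, 11-point threefold dilution series run in duplicate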
EGFR L858R = EGFR L858R (Homo sapiens, UniProt P00533, L858R); assay: pEGFR Y1068 ELISA assay, NIH3T3/EGFR_L858R cells; conditions: 3T3 cell line, 2 hrs compound treatment; read-out: pEGFRY1068 ELISA3T3 L858R IC50;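 note: sandwich ELISA of phospho-EGFR Tyr1068 in lysates of stably transfected NIH/3T3 pools after 2 h compound exposure at 37 °C, 11-point threefold dilution series run in duplicate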
[1] = molecular target: T1, EGFR wildtype, endogenous (Homo sapiens, UniProt P00533); assay: pEGFR Y1068 ELISA assay, A549 cells; conditions: full serum media, stimulated 10 min with EGF (40 ng/mL), read-out: pEGFRY1068 ELISAA549 IC50;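 note: sandwich ELISA of phospho-EGFR Tyr1068 in cell lysates, cells exposed to compound for 2 h before EGF stimulation, 11-point threefold dilution series run in duplicate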
T1 construct: A549 (EGFR wildtype, endogenous); host or cells: A549

EGFR E746-A750 deletion = EGFR E746-A750 deletion (Homo sapiens, UniProt P00533, DEL746-750); assay: pEGFR Y1068 ELISA assay, NIH3T3/EGFR_E746-A750 deletion cells; conditions: 3T3 Del cells, 2 hrs compound treatment; read-out: ELISA7E 3T3 Del IC50;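 note: sandwich ELISA on cell lysates detecting phospho-EGFR at Tyr1068, compounds run as 11-point threefold dilution series in duplicate, IC50 from inhibition of this phosphorylation signal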
EGFR Del (PC9) = molecular target: T2, EGFR Del (PC9) (Homo sapiens, UniProt P00533, DEL746-750); assay: EGFR ELISA, PC9 Del cells; conditions: read-out: EGFR_ELISA9E PC9 Del IC50;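 note: cellular EGFR autophosphorylation at Tyr1068 quantified by sandwich ELISA of cell lysates after 2 h compound exposure at 37 °C, 11-point threefold dilution series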
T2 construct: endogenous in cells; host or cells: PC-9

NIH3T3/EGFR_L858R = assay: Cell proliferation assay (CellTiter-Glo), NIH3T3/EGFR_L858R; conditions: Mus musculus, NIH3T3, 120 h, 3T3 cell line, three to five days of compound treatment, read-out: 3T3 L858R IC50
Description: (§1) Cell proliferation was measured using the CellTiter-Glo® Luminescent Cell Viability Assay. The assay involves the addition of a single reagent (CellTiter-Glo® Reagent) directly to cells cultured in serum-supplemented medium. The assay uses this one-step addition to induce cell lysis and generate a luminescent signal proportional to the amount of ATP present which is directly proportional to the number of metabolically active cells present in culture. The following cell lines were evaluated in this assay: NIH3T3/EGFR_L858R, NIH3T3/EGFR_E746-A750_deletion, NIH3T3/EGFR L858R+T790M, NIH3T3/EGFR_E746-A750_deletion+T790M, PC-9, PC9-DRH, NCI-H1975, and NCI-H3255. NIH/3T3 parental cells, NCI-H1975, and NCI-H3255 were purchased from the American Type Culture Collection (Manassas, Va.), and PC-9 cells were obtained from Japan. All cells were cultured according to recommendations. NIH/3T3 cells were grown in DMEM (Invitrogen, Carlsbad, Calif.) supplemented with 10% newborn calf serum (Invitrogen), and NIH3T3/EGFR mutant cells were grown in complete media with 5 μg/mL puromycin (Invitrogen). PC-9, NCI-H1975, and NCI-H3255 were grown in RPMI (Invitrogen, Carlsbad, Calif.) supplemented with 10% FBS (Sigma, St Louis, Mo.), and PC9-DRH cells were grown in complete media with 2 uM PF-00299804. Plasmids (pLPCX) with various EGFR constructs were made by GenScript (Piscataway, N.J.), and stable pools of NIH/3T3 cells expressing these constructs were made at Pfizer La Jolla. PC9-DRH cells were generated at Pfizer La Jolla by exposing cells to increasing concentrations of PF-00299804. Cells were plated in complete culture media (3000-5000 cells/well, 50 μl/well) on the bottom of white clear-bottom tissue culture treated microtiter plates (#3610, Corning Inc, Corning, N.Y.) and allowed to adhere overnight at 37° C., 5% CO2. The following day, compound dilution plates were prepared in 96 well clear V-bottom 0.5 mL polypropylene block plates (#3956, Corning, Inc). All cell lines were not evaluated for each compound. Each compound evaluated was prepared as a DMSO stock solution (10 mM). Compounds were tested in duplicate on each plate, with an 11-point serial dilution curve (1:3 dilution). Compound treatment (50 μl) was added from the compound dilution plate to the cell plate. The highest compound concentration was 1 or 10 μM (final), with a 0.3% final DMSO (#D-5879, Sigma, St Louis, Mo.) concentration. Plates were then incubated at 37° C., 5% CO2. After three to five days of compound treatment, CellTiter-Glo® Reagent (#G7573, Promega, Madison, Wis.) was prepared in one of two ways. If thawing a frozen aliquot of CellTiter-Glo® Reagent, the aliquot was thawed and equilibrated to room temperature prior to use while keeping it protected from light. Alternatively, new bottles of CellTiter-Glo® Buffer and CellTiter-Glo® Substrate were thawed and equilibrated to room temperature prior to use. CellTiter-Glo® Buffer (100 mL) was transferred into the amber bottle containing CellTiter-Glo® Substrate to reconstitute the lyophilized enzyme/substrate mixture, forming the CellTiter-Glo® Reagent. The reconstituted reagent was mixed by gently inverting the contents to obtain a homogeneous solution, and went into solution easily in less than one minute. Any unused reconstituted CellTiter-Glo® Reagent was immediately aliquoted and frozen at −20° C., protected from light. Cell plates were equilibrated at room temperature for approximately 30 minutes. An equivolume amount of CellTiter-Glo® Reagent (100 μL) was added to each well. Plates were mixed for two minutes on an orbital shaker to induce cell lysis, and then allowed to incubate at room temperature for 10 minutes to stabilize the luminescent signal. Luminescence was recorded using the PerkinElmer EnVision Excite Multilabel Reader used for endpoint reading for Luminescence detection (Waltham, Mass.). Data were analyzed using a four-parameter fit in Microsoft Excel. […]

[2] = tested on: NIH3T3/EGFR_E746-A750_deletion; assay: Cell proliferation assay (CellTiter-Glo), NIH3T3/EGFR_E746-A750_deletion; conditions: Mus musculus, NIH3T3, 120 h, 3T3 cell line, three to five days of compound treatment, read-out: 3T3 del IC50
Description: as §1

NIH3T3/EGFR L858R+T790M = assay: Cell proliferation assay (CellTiter-Glo), NIH3T3/EGFR L858R+T790M; conditions: Mus musculus, NIH3T3, 120 h, 3T3 cell line, three to five days of compound treatment, read-out: 3T3 L858R_T790M IC50
[3] = tested on: NIH3T3/EGFR_E746-A750_deletion+T790M; assay: Cell proliferation assay (CellTiter-Glo), NIH3T3/EGFR_E746-A750_deletion+T790M; conditions: Mus musculus, NIH3T3, 120 h, 3T3 cell line, three to five days of compound treatment, read-out: 3T3 del_T790M IC50
Description: as §1

[4] = molecular target: T3, EGFR L858R+T790M, endogenous (Homo sapiens, UniProt P00533, L858R/T790M); assay: pEGFR Y1068 ELISA assay, NCI-H1975 cells; conditions: value marked (H1975): NCI-H1975 cells, 2 hrs compound treatment; read-out: pEGFRY1068 ELISA3T3T790M—L858R IC50 (nM), (H1975);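 note: sandwich ELISA of endogenous phospho-EGFR (Tyr1068) in lysates of treated cells, 11-point 1:3 serial dilution tested in duplicate per plate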
T3 construct: NCI-H1975 (EGFR L858R+T790M, endogenous); host or cells: NCI-H1975

EGFR L858R, endogenous = molecular target: T4, EGFR L858R, endogenous (Homo sapiens, UniProt P00533, L858R); assay: pEGFR Y1068 ELISA assay, NCI-H3255 cells; conditions: value marked (H3255): NCI-H3255 cells, 2 hrs compound treatment; read-out: pEGFRY1068 ELISA3T3 L858R IC50 (nM), (H3255)
T4 construct: NCI-H3255 (EGFR L858R, endogenous); endogenous in cells; host or cells: NCI-H3255
T4 sequence (P00533 25-1210 L858R): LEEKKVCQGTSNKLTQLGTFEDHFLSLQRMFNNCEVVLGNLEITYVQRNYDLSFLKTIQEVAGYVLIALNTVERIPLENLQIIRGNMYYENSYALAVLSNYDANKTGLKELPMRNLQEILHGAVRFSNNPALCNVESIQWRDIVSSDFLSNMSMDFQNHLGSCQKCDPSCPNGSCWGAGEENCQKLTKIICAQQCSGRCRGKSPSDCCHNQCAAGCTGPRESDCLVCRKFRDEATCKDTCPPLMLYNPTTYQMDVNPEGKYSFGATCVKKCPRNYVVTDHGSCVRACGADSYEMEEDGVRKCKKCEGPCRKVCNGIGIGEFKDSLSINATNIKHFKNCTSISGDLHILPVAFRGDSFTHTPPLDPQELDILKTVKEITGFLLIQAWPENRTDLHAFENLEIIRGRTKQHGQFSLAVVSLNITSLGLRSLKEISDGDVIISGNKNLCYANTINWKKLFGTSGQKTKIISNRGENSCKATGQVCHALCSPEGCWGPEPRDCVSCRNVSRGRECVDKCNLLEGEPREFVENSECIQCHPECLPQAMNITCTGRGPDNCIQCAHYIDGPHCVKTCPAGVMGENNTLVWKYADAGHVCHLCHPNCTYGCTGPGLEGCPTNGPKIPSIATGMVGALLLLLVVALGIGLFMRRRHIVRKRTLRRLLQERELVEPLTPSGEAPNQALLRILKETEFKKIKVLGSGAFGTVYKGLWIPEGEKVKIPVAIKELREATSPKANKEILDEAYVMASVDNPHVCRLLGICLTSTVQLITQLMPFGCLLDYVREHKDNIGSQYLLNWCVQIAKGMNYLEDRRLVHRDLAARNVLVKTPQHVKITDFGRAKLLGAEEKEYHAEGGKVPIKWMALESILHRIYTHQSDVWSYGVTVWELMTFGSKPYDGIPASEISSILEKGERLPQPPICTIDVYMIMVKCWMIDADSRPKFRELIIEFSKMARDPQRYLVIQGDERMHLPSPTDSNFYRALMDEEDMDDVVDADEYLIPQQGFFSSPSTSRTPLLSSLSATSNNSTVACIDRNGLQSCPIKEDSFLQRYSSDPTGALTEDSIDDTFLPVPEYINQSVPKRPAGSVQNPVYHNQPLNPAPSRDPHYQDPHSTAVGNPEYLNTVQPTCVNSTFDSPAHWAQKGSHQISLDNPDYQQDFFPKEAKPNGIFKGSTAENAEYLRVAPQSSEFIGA

T1 sequence (P00533 25-1210): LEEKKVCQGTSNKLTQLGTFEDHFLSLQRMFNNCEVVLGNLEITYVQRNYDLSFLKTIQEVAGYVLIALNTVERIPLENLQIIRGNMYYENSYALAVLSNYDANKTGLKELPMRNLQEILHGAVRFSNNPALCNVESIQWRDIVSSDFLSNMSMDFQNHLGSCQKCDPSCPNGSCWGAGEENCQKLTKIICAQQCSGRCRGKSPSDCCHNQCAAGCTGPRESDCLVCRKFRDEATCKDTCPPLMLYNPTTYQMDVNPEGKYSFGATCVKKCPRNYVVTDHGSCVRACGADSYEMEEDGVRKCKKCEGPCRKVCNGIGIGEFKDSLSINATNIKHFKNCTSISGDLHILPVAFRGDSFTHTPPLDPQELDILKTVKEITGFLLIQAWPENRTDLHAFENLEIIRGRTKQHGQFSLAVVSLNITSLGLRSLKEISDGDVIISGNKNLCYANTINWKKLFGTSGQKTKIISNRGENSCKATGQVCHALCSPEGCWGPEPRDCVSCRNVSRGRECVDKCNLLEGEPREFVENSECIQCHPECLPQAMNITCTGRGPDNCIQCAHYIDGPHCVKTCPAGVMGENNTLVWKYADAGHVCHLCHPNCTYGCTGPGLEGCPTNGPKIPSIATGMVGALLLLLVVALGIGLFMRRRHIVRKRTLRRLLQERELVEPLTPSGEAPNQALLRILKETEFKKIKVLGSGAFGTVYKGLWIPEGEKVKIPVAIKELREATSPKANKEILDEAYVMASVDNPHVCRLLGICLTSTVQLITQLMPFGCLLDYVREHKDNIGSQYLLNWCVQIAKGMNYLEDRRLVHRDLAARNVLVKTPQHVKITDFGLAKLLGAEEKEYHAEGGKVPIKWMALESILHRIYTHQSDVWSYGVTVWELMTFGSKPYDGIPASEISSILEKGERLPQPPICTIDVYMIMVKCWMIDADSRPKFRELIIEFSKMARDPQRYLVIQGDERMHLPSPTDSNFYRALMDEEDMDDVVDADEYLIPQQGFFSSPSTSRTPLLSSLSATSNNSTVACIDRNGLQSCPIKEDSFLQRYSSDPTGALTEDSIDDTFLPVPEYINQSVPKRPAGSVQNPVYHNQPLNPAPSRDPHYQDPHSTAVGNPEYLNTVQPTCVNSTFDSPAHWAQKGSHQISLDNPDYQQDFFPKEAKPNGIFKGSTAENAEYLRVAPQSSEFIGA
Chain of EGFR L858R (P00533 25-1210 L858R): as the sequence (P00533 25-1210 L858R) above
T2 sequence (P00533 with tags, fused parts or gaps DEL746-750): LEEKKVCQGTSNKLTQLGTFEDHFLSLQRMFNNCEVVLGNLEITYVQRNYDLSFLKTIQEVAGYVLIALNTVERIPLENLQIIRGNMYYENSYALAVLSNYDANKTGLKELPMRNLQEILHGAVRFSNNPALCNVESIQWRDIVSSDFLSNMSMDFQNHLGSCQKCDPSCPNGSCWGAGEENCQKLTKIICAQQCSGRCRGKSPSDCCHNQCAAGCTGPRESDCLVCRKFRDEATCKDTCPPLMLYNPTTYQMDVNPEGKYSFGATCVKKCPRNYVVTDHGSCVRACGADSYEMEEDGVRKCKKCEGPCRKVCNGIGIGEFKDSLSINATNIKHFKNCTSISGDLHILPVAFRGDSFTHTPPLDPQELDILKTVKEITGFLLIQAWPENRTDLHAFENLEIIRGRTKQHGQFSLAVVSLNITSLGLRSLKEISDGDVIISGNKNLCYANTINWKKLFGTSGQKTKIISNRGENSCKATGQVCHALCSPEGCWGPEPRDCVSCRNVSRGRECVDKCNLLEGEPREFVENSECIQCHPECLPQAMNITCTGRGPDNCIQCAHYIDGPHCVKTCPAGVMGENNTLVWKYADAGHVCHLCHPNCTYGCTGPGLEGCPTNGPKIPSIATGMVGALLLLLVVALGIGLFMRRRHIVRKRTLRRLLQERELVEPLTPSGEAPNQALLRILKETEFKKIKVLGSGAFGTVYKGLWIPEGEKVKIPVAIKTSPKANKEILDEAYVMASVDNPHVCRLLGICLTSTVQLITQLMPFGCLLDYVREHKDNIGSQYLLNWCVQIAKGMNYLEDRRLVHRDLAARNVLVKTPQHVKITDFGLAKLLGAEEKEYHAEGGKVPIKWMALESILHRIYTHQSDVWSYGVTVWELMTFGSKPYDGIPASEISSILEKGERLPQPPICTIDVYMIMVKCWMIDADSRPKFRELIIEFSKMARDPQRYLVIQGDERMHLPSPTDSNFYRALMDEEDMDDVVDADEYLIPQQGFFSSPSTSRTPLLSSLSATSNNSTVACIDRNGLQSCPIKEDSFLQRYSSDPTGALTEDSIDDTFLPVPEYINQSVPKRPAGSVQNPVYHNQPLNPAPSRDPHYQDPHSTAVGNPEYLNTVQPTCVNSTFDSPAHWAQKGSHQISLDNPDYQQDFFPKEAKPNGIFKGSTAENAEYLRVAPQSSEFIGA

Structure (SMILES)	IC50 (EGFR L858R+T790M)	IC50 (EGFR L858R)	IC50 [1]	IC50 (EGFR E746-A750 deletion)	IC50 (EGFR Del (PC9))	IC50 (NIH3T3/EGFR_L858R)	IC50 [2]	IC50 (NIH3T3/EGFR L858R+T790M)	IC50 [3]	IC50 [4]	IC50 (EGFR L858R, endogenous)
C=CC(=O)Nc1cccc(Oc2nc(Nc3cnn(C)c3)nc3[nH]cc(C#N)c23)c1 [Example 57]	67 nM	105 nM	> 10000 nM	25 nM	44 nM	> 1000 nM	< 10 nM	10 to 100 nM	10 to 100 nM	–	–
C=CC(=O)N[C@]1(C)C[C@@H](Oc2nc(Nc3cnn(C)c3)nc3[nH]cc(Cl)c23)C1 [Example 113]	–	–	> 10000 nM	–	> 10000 nM	–	–	–	–	457 nM	> 8580 nM
C=CC(=O)N[C@H]1CC[C@@H](Oc2nc(Nc3cnn(C)c3)nc3[nH]cc(Cl)c23)C1 [Example 77]	–	5190 nM	> 10000 nM	–	–	> 1000 nM	> 1000 nM	100 to 1000 nM	100 to 1000 nM	301 nM	–
C=CC(=O)N1C[C@H](COc2nc(Nc3cn(CC#N)nc3C)nc3[nH]cc(Cl)c23)[C@@H](OC)C1 [Example 115]	–	–	> 10000 nM	–	953 nM	–	–	–	–	73 nM	85 nM
C=CC(=O)N(C)[C@H]1C[C@H](Oc2nc(Nc3cnn(C)c3)nc3[nH]cc(-c4cnn(C)c4)c23)C1 [Example 95]	–	–	> 10000 nM	–	8570 nM	–	–	–	–	1570 nM	2440 nM
C=CC(=O)N(C)[C@H]1C[C@H](Oc2nc(Nc3cn(C)nc3C)nc3[nH]cc(Cl)c23)C1 [Example 62]	10 nM	218 nM	> 10000 nM	237 nM	558 nM	10 to 100 nM	10 to 100 nM	10 to 100 nM	< 10 nM	–	–
C=CC(=O)N[C@H]1C[C@@H](Oc2nc(Nc3cnn(C)c3)nc3[nH]cc(C#N)c23)C1 (single isomer, unassigned) [Example 5, N-[cis-3-({5-cyano-2-[(1-methyl-1H-pyrazol-4-yl)amino]-7H-pyrrolo[2,3-d]pyrimidin-4-yl}oxy)cyclobutyl]prop-2-enamide]	221 nM	1810 nM	> 10000 nM	1320 nM	982 nM	> 1000 nM	100 to 1000 nM	100 to 1000 nM	100 to 1000 nM	–	–
C=CC(=O)N1C[C@H](COc2nc(Nc3cn(C)nc3OC)nc3[nH]cc(Cl)c23)[C@@H](OC)C1 [Example 70]	12 nM	113 nM	> 10000 nM	269 nM	592 nM	100 to 1000 nM	100 to 1000 nM	100 to 1000 nM	10 to 100 nM	–	–
C=CC(=O)N1C[C@@H]2CN(c3nc(Nc4cnn(C)c4)nc4[nH]cc(Cl)c34)C[C@]2(O)C1 [Example 84]	–	–	–	–	5240 nM	–	–	–	–	175 nM	1100 nM
C=CC(=O)N(C)[C@@H]1CCCN(c2nc(Nc3cnn(C)c3)nc3[nH]cc(Cl)c23)C1 [Example 94]	–	–	–	–	4430 nM	–	–	–	–	385 nM	608 nM
C=CC(=O)N(C)[C@H]1C[C@H](Oc2nc(Nc3cnn(C)c3)nc3[nH]cc(Cl)c23)C1 [Example 108]	7 nM	164 nM	> 10000 nM	81 nM	352 nM	100 to 1000 nM	10 to 100 nM	10 to 100 nM	< 10 nM	–	–
C=CC(=O)N1CCOC2(CCN(c3nc(Nc4cnn(C)c4)nc4[nH]cc(Cl)c34)C2)C1 (single isomer, unassigned) [Example 112]	–	–	> 10000 nM	–	–	–	–	–	–	63 nM	241 nM
C=CC(=O)N1C[C@@H]2CN(c3nc(Nc4cnn(C)c4)nc4[nH]cc(Cl)c34)C[C@]2(OC)C1 (single isomer, unassigned) [Example 88]	–	–	–	–	630 nM	–	–	–	–	34 nM	41 nM
C=CC(=O)N1C[C@H](COc2nc(Nc3cnn(CC#N)c3)nc3[nH]cc(Cl)c23)[C@@H](OC)C1 [Example 93]	–	–	–	–	383 nM	–	–	–	–	31 nM	26 nM
C=CC(=O)Nc1cccc(Oc2nc(Nc3cc[nH]n3)nc3[nH]ccc23)c1 [Example 27]	–	–	> 10000 nM	56 nM	–	–	–	–	–	146 nM	–
C=CC(=O)N[C@@H]1CCCN(c2nc(Nc3cnn(C)c3)nc3[nH]cc(Cl)c23)C1 [Example 11, N-[(3R)-1-{5-chloro-2-[(1-methyl-1H-pyrazol-4-yl)amino]-7H-pyrrolo[2,3-d]pyrimidin-4-yl}piperidin-3-yl]prop-2-enamide]	–	8860 nM	> 10000 nM	–	–	> 1000 nM	> 1000 nM	100 to 1000 nM	100 to 1000 nM	525 nM	–
C=CC(=O)Nc1cc(F)cc(Oc2nc(Nc3cnn([C@@H]4CCN(C)C4)c3)nc3[nH]ccc23)c1 [Example 107]	3 nM	26 nM	2170 nM	12 nM	–	10 to 100 nM	< 10 nM	10 to 100 nM	< 10 nM	–	–
C=CC(=O)Nc1cccc(Oc2nc(Nc3ccn(C)n3)nc3[nH]cc(Cl)c23)c1 [Example 21]	13 nM	202 nM	7850 nM	33 nM	–	> 1000 nM	10 to 100 nM	10 to 100 nM	< 10 nM	–	–
